# Columns and labels:
# [1] = test system: hepatocytes isolated from a male Sprague-Dawley rat; experiment: Synthesis of non-saponified and saponified lipids (14C-acetate incorporation) in hepatocytes; type: cell-based; conditions: 100 μM, 14C-acetate labeling 2 hr (FIG. 18)
# Protocol: A male Sprague-Dawley rat was anesthetized by administration of sodium pentobarbitol by intraparitoneal injection at 50 mg/kg. In situ perfusion of the liver was performed as follows. […] To digest the liver, DSC solution (6.7 mM KCl, 143 mM NaCl, 9.2 mM Na HEPES, 5 mM CaCl2-2H2O, 1.7 mM Fructose, 0.029 mM Phenol red, 0.2% BSA, 100 U/ml collagenase Type I, 93 U/ml Hyaluronidase, 160 BAEE/ml trypsin inhibitor, pH 7.5) was perfused through the liver at a flow rate of 30 ml/min for 6 minutes at a temperature of 37° C. After digestion, cells were dispersed in a solution of DMEM-(DMEM containing 2 mM GlutMax-1, 0.2% BSA, 5% FBS, 12 nM insulin, 1.2 μM hydrocortisone) to stop the digestion process. The crude cell suspension was filtered through three layers of stainless steel mesh with pore sizes of 250, 106, and 75 μm respectively. Filtered cells were centrifuged at 50×g for two minutes and the supernatant discarded. The resulting cell pellet was resuspended in DMEM and centrifuged again. This final cell pellet was resuspended in DMEM+HS solution (DMEM containing 2 mM GlutMax-1, 20 nM delta-aminolevulinic acid, 17.4 mM MEM non-essential amino acids, 20% FBS, 12 nM insulin, 1.2 μM hydrocortisone) and plated to form monolayer cultures at a density of 100×10^3 cells/cm^2 on collagen coated culture dishes. […]
# [2] = test system: chow fed male Sprague-Dawley rats; experiment: Serum lipids, lipoproteins, apolipoproteins and weight gain in chow fed male Sprague-Dawley rats after seven daily oral doses; type: in vivo, rat; conditions: 100 mg/kg, seven days, vs vehicle
# Protocol: Illustrative compounds of the invention were administered daily at a dose of 100 mg/kg to chow fed male Sprague-Dawley rats for seven days in the morning by oral gavage in 1.5% carboxymethylcellulose/0.2% Tween-20 (dosing vehicle). Animals were weighed daily. Animals were allowed free access to rodent chow and water throughout the study. After the seventh dose, animals were sacrificed in the evening and blood serum was assayed for lipoprotein cholesterol profiles, serum triglycerides, total cholesterol VLDL, LDL, and HDL cholesterol, and the ratio of HDL cholesterol to that of VLDL plus LDL cholesterol, apolipoproteins A-I, C-II, C-III, and E by immunoelectrophoresis, and percent weight gain.
# The five compounds were tested in two separate experiments. In each experiment, the experimental data were normalized against a control group of rats which received the dosing vehicle alone.
# [3] = test system: female obese Zucker rats; experiment: Experiment A: serum lipids, glucose, non-esterified fatty acids and weight gain in obese female Zucker rats, seven days; type: in vivo, rat; conditions: Compound A 86 mg/kg, one week
# Protocol: Dosing vehicle, Compound A (86 mg/kg of body weight) or troglitazone (120 mg/kg of body weight) was administered to eight week old female obese Zucker rats daily for seven days in the morning by oral gavage in 1.5% carboxymethylcellulose/0.2% Tween-20. Troglitazone was obtained commercially. Finely crushed tablets were suspended in vehicle for dosing. Orbital blood samples were obtained following a six-hour fast prior to the initial dose and also following the seventh dose.
# Blood serum was assayed for total cholesterol and triglycerides (FIG. 5), lipoprotein cholesterol profiles (FIG. 6), VLDL plus LDL cholesterol combined (also referred to as apo B containing lipoprotein cholesterol or non-HDL cholesterol), HDL cholesterol, and the ratio of HDL cholesterol to that of VLDL plus LDL cholesterol (FIG. 7), serum glucose, and non-esterified fatty acids (FIG. 8), and percent weight gain (FIG. 9). […] In particular, Compound A caused a marked elevation in HDL cholesterol after one week of treatment. Using the serum total cholesterol values (FIG. 5A) and the lipoprotein cholesterol distribution (FIG. 6), the amount of cholesterol associated with non-HDL (i.e., VLDL plus LDL) and HDL were determined (FIG. 7). […] In contrast, troglitazone reduced non-HDL and HDL cholesterol by 67% and 4%, respectively.
# [4] = test system: chow fed obese female Zucker rats; experiment: Experiments B, C, D, E: serum lipids, glucose, insulin, body and liver weight in obese female Zucker rats, 14 days; type: in vivo, rat
# Protocol: In a number of different experiments, illustrative compounds of the invention and troglitazone were administered daily at various doses to 10-week old chow fed obese female Zucker rats for 14 days in the morning by oral gavage in 1.5% carboxymethylcellulose/0.2% Tween-20 (dosing vehicle). Animals were weighed daily. Animals were allowed free access to rodent chow and water throughout the study. Blood glucose was determined after a 6-hour fast in the afternoon without anesthesia from a tail vein. Serum was also prepared from a blood sample subsequently obtained from the orbital venous plexus (with O2/CO2 anesthesia) prior to and after one week treatment and used lipid and insulin determinations. At two weeks, blood glucose was again determined after a 6-hour fast without anesthesia from a tail vein. Soon thereafter, animals were sacrificed by CO2 inhalation in the evening and cardiac blood serum was collected and assessed for various lipids and insulin. Body weight was determined daily prior to dosing and at the time of euthanasia.
# [5] = test system: LDL receptor deficient mice; experiment: Lipoprotein cholesterol profile in LDL receptor-deficient mice; type: in vivo; conditions: 300 mg/kg/day, one week; 4 chow-fed female mice (FIG. 17)
# Text: The effect of Compound A on LDL levels in a murine model of homozygous familial hypercholesterolemia (Ishibashi et al., 1993, J. Clin. Invest. 92:883-893; Ishibashi et al., 1994, J. Clin. Invest. 93:1885-1893) was studied. LDL receptor-deficient mice have elevated LDL cholesterol relative to wild type mice when fed a chow diet. When fed cholesterol-enriched diets, these mice develop atherosclerosis.
structure (smiles),measurement,setting,value
"CC(C)(CCCOCCCC(C)(C)OP(=O)(OCc1ccccc1)OCc1ccccc1)OP(=O)(OCc1ccccc1)OCc1ccccc1 [Compound E, phosphoric acid dibenzyl ester 4-(4-(bis-benzyloxy-phosphoryloxy)-4-methyl-pentyloxy)-1,1-dimethyl-butyl ester]",rate of saponified fatty acid synthesis (in words),[1],reduced the rates of saponified fatty acid synthesis
"CC(C)(O)CCCCOCCCCC(C)(C)O [Compound F, 6-(5-hydroxy-5-methyl-hexyloxy)-2-methyl-hexan-2-ol]",rate of saponified fatty acid synthesis (in words),[1],reduced the rates of saponified fatty acid synthesis
"CC(C)(CO)CCCCOCCCCC(C)(C)CO [Compound A, 6-(6-hydroxy-5,5-dimethylhexyloxy)-2,2-dimethyl-hexan-1-ol]",change in VLDL cholesterol,[2],no change
same,serum glucose (in words),[3],did not induce a hypoglycemic state
same,Body Weight Gain (% of Pre-treatment),"[4]; Experiment C, 1 mg/kg/day, 14 days, control +16.7",+16.7 % of Pre-treatment
same,Triglycerides (% of Pre-treatment),"[4]; Experiment C, 1 mg/kg/day, 14 days, control −11.2",−8.8 % of Pre-treatment
same,Body Weight Gain (% of Pre-treatment),"[4]; Experiment C, 3 mg/kg/day, 14 days, control +16.7",+17.5 % of Pre-treatment
same,Triglycerides (% of Pre-treatment),"[4]; Experiment C, 3 mg/kg/day, 14 days, control −11.2",−24.6 % of Pre-treatment
same,HDL-Cholesterol (% of Pretreatment),"[4]; Experiment C, 3 mg/kg/day, 14 days, control −29.8",−3.7 % of Pretreatment
same,Body Weight Gain (% of Pre-treatment),"[4]; Experiment C, 10 mg/kg/day, 14 days, control +16.7",+10.7 % of Pre-treatment
same,Triglycerides (% of Pre-treatment),"[4]; Experiment C, 10 mg/kg/day, 14 days, control −11.2",−50.9 % of Pre-treatment
same,Body Weight Gain (% of Pre-treatment),"[4]; Experiment C, 30 mg/kg/day, 14 days, control +16.7",+11.3 % of Pre-treatment
same,Triglycerides (% of Pre-treatment),"[4]; Experiment C, 30 mg/kg/day, 14 days, control −11.2",−42.0 % of Pre-treatment
same,Triglycerides (% of Pre-treatment),"[4]; Experiment C, 100 mg/kg/day, 14 days, control −11.2",−57.0 % of Pre-treatment
same,glucose to insulin ratio (in words),"[4]; Experiment C, Compound A 100 mg/kg (FIG. 14)",reduced
same,blood glucose (in words),"[4]; Experiment C, Compound A 100 mg/kg, troglitazone 40 mg/kg, fasted rats (FIG. 12)",tendency to lower blood glucose
same,reduction of serum triglycerides (in words),"[4]; Experiment C, Compound A 1-100 mg/kg, troglitazone 12, 40, 120 mg/kg (FIG. 10)",reduced serum triglyceride levels at all doses
same,glucose to insulin ratio (in words),"[4]; Experiment C, Compound A 1 and 3 mg/kg, two weeks (FIG. 14)",declined by approximately ⅓ to ½
same,weekly percent weight gain (in words),"[4]; Experiment C, Compound A 10, 30 and 100 mg/kg, after one and two weeks (FIG. 15)",markedly reduced
same,glucose to insulin ratio (in words),"[4]; Experiment C, Compound A 10 and 30 mg/kg (FIG. 14)",sustained at pretreatment levels
same,serum insulin (in words),"[4]; Experiment C, higher Compound A doses (FIG. 13)",sharp rise in serum insulin was largely curtailed or minimized
same,Triglycerides (% of Pre-treatment),"[4]; Experiment D, 10 mg/kg/day, 14 days, control +1.6",−11.1 % of Pre-treatment
same,Body Weight Gain (% of Pre-treatment),"[4]; Experiment D, 10 mg/kg/day, 14 days, control +10.6",+2.2 % of Pre-treatment
same,Triglycerides (% of Pre-treatment),"[4]; Experiment D, 100 mg/kg/day, 14 days, control +1.6",−62.9 % of Pre-treatment
same,Body Weight Gain (% of Pre-treatment),"[4]; Experiment D, 100 mg/kg/day, 14 days, control +10.6",+4.5 % of Pre-treatment
same,Non HDL-Cholesterol (% of Pretreatment),"[4]; Experiment D, 100 mg/kg/day, 14 days, control +15.2",+7.5 % of Pretreatment
same,Triglycerides (% of Pre-treatment),"[4]; Experiment E, 100 mg/kg/day, 14 days, control +12.0",−43.2 % of Pre-treatment
same,Body Weight Gain (% of Pre-treatment),"[4]; Experiment E, 100 mg/kg/day, 14 days, control +21.9",+19.1 % of Pre-treatment
same,Non HDL-Cholesterol (% of Pretreatment),"[4]; Experiment E, 100 mg/kg/day, 14 days, control −13.1",+7.2 % of Pretreatment
same,HDL (in words),[5],HDL elevation in all treated mice
same,LDL cholesterol (in words),[5],rapid and significant reduction in LDL cholesterol
"CC(C)(CCCCOCCCCC(C)(C)OP(=O)(O)O)OP(=O)([O-])[O-].[Na+].[Na+] [Compound B, phosphoric acid mono-(1,1-dimethyl-5-(5-methyl-5-phosphonooxy-hexyloxy)-pentyl) ester sodium salt]",Body Weight Gain (% of Pre-treatment),"[4]; Experiment B, 100 mg/kg/day, 14 days, control +10.7",+12.0 % of Pre-treatment
same,Triglycerides (% of Pre-treatment),"[4]; Experiment B, 100 mg/kg/day, 14 days, control −31.9",+24.6 % of Pre-treatment

# Reference: patent publication US6909014B2, “Intermediates for the synthesis of ether compounds” (Esperion Therapeutics, Inc., priority 1999, dated 2005)
